Measurements: publication PMC11409218, “Metal(triphenylphosphine)-atovaquone Complexes: Synthesis, Antimalarial Activity, and Suppression of Heme Detoxification” (Inorganic Chemistry, 2024)

Columns and labels:
Solubility in solvents = assay type: physicochemical; conditions: for solubility in common organic solvents: dichloromethane, chloroform, dimethyl sulfoxide, acetone
Excerpt: (see Experimental Section). The chemical and physical characterization of ATV and the metal–ATV complexes are presented in the Supporting Information (Figures S1–S16). […] We attributed this band to a metal-to-ligand charge transfer (MLCT metal →π ATV naphthoquinone)[37] (Figures S3, S26–S28).

J774 cell line = experiment: Cytotoxicity after preincubation of compounds in cell culture medium (Figure 3B); assay type: cell-based, murine; conditions: J774 cells; compound preincubated 0 or 72 h in culture medium
Description: (§1) Figure 3 (A) Antiplasmodial activity of the compounds against the 3D7 strain of P. falciparum. (B) Cytotoxicity against the J774 cell line. In both cases, the compounds were diluted in cell culture and incubated for 0 or 72 h before use in the assays. […] In panels A and C, parasite viability was measured by HRP2 ELISA-based assay, and IC50 values were calculated. In panel B, cell viability was measured by CellTiter-Glo, and IC50 values were calculated. In panels A and B, the values are the mean and standard deviation of two independent experiments, using each concentration of compounds in duplicate. In panel C, the values are the mean and standard deviation of one experiment, using each concentration of compounds in quadruplicate. *p < 0.05; indicating significant difference by Student’s t test.
To further shed light on this, we performed the same experiment described above but assessing cytotoxicity in […] cells (Figure 3B). […] Our data also confirm not only drug stability but also the reactivity of the resulting products as important parameters.

[1] = Interaction with ferriprotoporphyrin IX, spectroscopic titration of Soret band at 402 nm; assay type: binding; conditions: for log K (association constant of drug binding to hemin): pH 7.4, 40% aqueous DMSO, 1:1 complexation model, mean and SEM of three experiments; for hypochromic effect on the Soret band of hemin: until saturation point, 402 nm
Description: The association constants (Log K) of the compounds with hemin were determined at pH 7.4 using a 1:1 complexation model with the equation proposed by Egan et al.[52] for the nonlinear least-squares fitting (Figure 2, Table 2).
Following a procedure described in the literature,[52] the association constant (Log K) of the drugs with ferriprotoporphyrin IX was determined in 40% aqueous DMSO. A stock solution of hemin chloride was prepared by adding 3.5 mg hemin to 10 mL DMSO and adjusted to pH 7.5. A working solution of hemin in 40% DMSO was further prepared by mixing 140 μL hemin stock solution, 5 mL distilled water, 3.86 mL DMSO, and 1 mL 0.2 M Tris (tris(hydroxymethyl)aminomethane) buffer. Aliquots of compounds were added to this working hemin solution. Blank solutions containing only hemin or compounds were prepared to subtract the absorbance of the compounds. […] Binding affinity was determined using the equation A = (A0 + A∞K[C])/(1 + K[C]) for a 1:1 complexation model using nonlinear least-squares fitting, where A0 is the absorbance of Fe(III)PPIX, A∞ is the absorbance of the compound–hemin adduct at saturation, and K is the association constant. Three independent experiments were performed.

[2] = test system: 3D7 strain of P. falciparum; experiment: Antiplasmodial activity after preincubation of compounds in cell culture medium (Figure 3A); assay type: cell-based, Plasmodium falciparum; conditions: compound preincubated 0 or 72 h in culture medium
Description: To understand the reason for the difference in antiplasmodial potency between monodentate complex 2 and bidentate complexes 1 and 3, we incubated all three metal complexes in cell culture media for different times before assessing their antiplasmodial activity (Figure 3A). The percentage of parasite growth inhibition in samples of cell culture medium containing complex 2 was reduced after 72 h incubation in comparison to freshly prepared samples (0 h). […] We interpret the loss in antiplasmodial activity for complex 2 as potentially resulting from ligand exchange reactions occurring in the culture medium before drug internalization into parasite cells. This denotes a higher lability for the monodentate complex 2 than for the bidentate complexes 1 and 3.
as §1

[3] = Cytotoxicity in mammalian cells (CellTiter-Glo), HepG2; assay type: cell-based; conditions: HepG2 hepatocellular carcinoma cells; HepG2 human hepatocellular carcinoma line; 72 h drug incubation; mean of three experiments; read-out: mammalian cells CC50 (±SEM), HepG2
Description: (§2) Cell lines J774 and HepG2 were incubated with the drug for 72 h, the same time frame as employed to determine antimalarial activity. Cytotoxicity was evaluated in parallel with ATV as a representative parental drug, while doxorubicin was used as a standard cytotoxic drug. These experiments were also used to estimate the in vitro selectivity index (Table 2).
(§3) Doxorubicin chloridrate (Eurofarma, São Paulo, Brazil) was used as a positive control, while untreated cells were employed as negative controls. Bioluminescence readings were performed using a Filtermax F5Multi-Mode instrument (Molecular Devices, Sunnyvale, CA) using the CellTiter-Glo kit (Promega Corporation, Madison, USA). Three independent experiments were performed and CC50 values were calculated.

[4] = Cytotoxicity in mammalian cells (CellTiter-Glo), J774; assay type: cell-based; conditions: mouse, J774 macrophage cells; J774 murine macrophage line; 72 h drug incubation; mean of three experiments; read-out: mammalian cells CC50 (±SEM), J774
Description: as §2, §3

[5] = test system: β-hematin crystal formation; experiment: β-Hematin crystal formation by FTIR spectroscopy; assay type: biochemical; conditions: acid-buffered medium pH 5; 1:3 hematin/compound ratio
Description: The ability of these compounds to inhibit the formation of β-hematin crystals was investigated by IR spectroscopy (Figure 2f). Of note, β-hematin crystal formation was assayed in an acid-buffered medium, while hemin titration was assayed at neutral pH. […]. For both ATV and complexes 1–3, there may have been overlapping between a decrease in the (C = O) band of heme species and a (C = O) band of quinone. However, there was no danger of overlaps in the (C–O) band of heme species at 1210 cm^–1, since these species are absent from the drugs.
The conversion of hematin into β-hematin crystals was determined by FTIR spectroscopy as described previously.[52] In a microtube, 20 mg hemin and three equivalents of the compounds were dissolved in 3 mL 0.1 M NaOH solution and stirred for 30 min at 60 °C. Then, 0.3 mL 0.1 M HCl and 1.7 mL sodium acetate buffer (10 M, pH 5) were added at the same temperature. […] After incubation for 120 min, the reaction mixture was cooled on ice for 10 min and then centrifuged and washed with water to remove salts. Resulting crystals were dried and IR spectra were obtained using ATR mode.[66]−[68]

[6] = test system: 3D7 strain of P. falciparum; experiment: Coincubation of ATV with metal precursors, parasite growth inhibition (Figure 3C); assay type: cell-based, Plasmodium falciparum; conditions: ATV 1.0 nM, [Au(PPh3)Cl] and [Cu(PPh3)2NO3] at 1000 nM
Description: as §1
After ascertaining the existence of an association between the reactivity of the metal complexes and their pharmacological activity, we decided to evaluate whether they could be generated in situ upon coincubation of ATV and the respective metal precursors in the cell culture medium. In this set of experiments, ATV was added at 1.0 nM, while the metal precursors of gold(I) [Au(PPh3)Cl] and copper(I) [Cu(PPh3)2NO3] were added at 1000 nM (Figure 3C).

| Molecule | solubility in common organic solvents (Solubility in solvents) | solubility in methanol, ethanol, and acetonitrile (Solubility in solvents) | cell viability (cytotoxicity) after 72 h incubation in cell culture medium versus freshly prepared samples (0 h) (J774 cell line) | log K (association constant of drug binding to hemin) [1] | hypochromic effect on the Soret band of hemin [1] [%] | parasite growth inhibition after 72 h incubation in cell culture medium versus freshly prepared samples (0 h) [2] | CC50 at 72 h [3] [µM] | CC50 at 72 h [4] [µM] | inhibition of β-hematin crystal formation (IR bands 1663 and 1210 cm^–1) [5] | parasite growth inhibition of ATV in the absence or presence of metal precursors [6] |
| --- | --- | --- | --- | --- | --- | --- | --- | --- | --- | --- |
| [Ag(ATV)(PPh3)2] [Complex 1] | had enough solubility | partially soluble | became less cytotoxic | 4.33 ± 0.05 | 37 | remained unchanged | – | – | – | – |
| O=C1C(O)=C([C@H]2CC[C@H](c3ccc(Cl)cc3)CC2)C(=O)c2ccccc21 [ATV, atovaquone] | – | – | – | 3.64 ± 0.10 | 42 | – | 32.4 ± 4.8 | 19.8 ± 1.6 | unable to inhibit β-hematin crystal formation | did not observe a difference |
| O=C1C([O][Cu]([PH](c2ccccc2)(c2ccccc2)c2ccccc2)[PH](c2ccccc2)(c2ccccc2)c2ccccc2)=C([C@H]2CC[C@H](c3ccc(Cl)cc3)CC2)C(=O)c2ccccc21 [Complex 3, [Cu(ATV)(PPh3)2]] | had enough solubility | partially soluble | remained unchanged | 3.97 ± 0.01 | 38 | remained unchanged | – | – | – | – |
| [Au(ATV)(PPh3)]·2H2O [Complex 2] | had enough solubility | partially soluble | remained unchanged | 4.46 ± 0.01 | 51 | reduced | – | – | – | – |
